Patent US8163724B2, “Glucocorticosteroids, processes for their preparation, pharmaceutical compositions containing them and their use in therapy” (AstraZeneca AB, priority 2007, dated 2012)

These compounds were tested against T1, recombinant human GR (Homo sapiens, UniProt P04150) (assay: Human Glucocorticoid Receptor (GR) Assay (fluorescence polarization, Panvera/Invitrogen kit)). Conditions: not given.
T1 construct: purchased Panvera/Invitrogen P2812 (kit P2893)
T1 sequence (P04150 1-777): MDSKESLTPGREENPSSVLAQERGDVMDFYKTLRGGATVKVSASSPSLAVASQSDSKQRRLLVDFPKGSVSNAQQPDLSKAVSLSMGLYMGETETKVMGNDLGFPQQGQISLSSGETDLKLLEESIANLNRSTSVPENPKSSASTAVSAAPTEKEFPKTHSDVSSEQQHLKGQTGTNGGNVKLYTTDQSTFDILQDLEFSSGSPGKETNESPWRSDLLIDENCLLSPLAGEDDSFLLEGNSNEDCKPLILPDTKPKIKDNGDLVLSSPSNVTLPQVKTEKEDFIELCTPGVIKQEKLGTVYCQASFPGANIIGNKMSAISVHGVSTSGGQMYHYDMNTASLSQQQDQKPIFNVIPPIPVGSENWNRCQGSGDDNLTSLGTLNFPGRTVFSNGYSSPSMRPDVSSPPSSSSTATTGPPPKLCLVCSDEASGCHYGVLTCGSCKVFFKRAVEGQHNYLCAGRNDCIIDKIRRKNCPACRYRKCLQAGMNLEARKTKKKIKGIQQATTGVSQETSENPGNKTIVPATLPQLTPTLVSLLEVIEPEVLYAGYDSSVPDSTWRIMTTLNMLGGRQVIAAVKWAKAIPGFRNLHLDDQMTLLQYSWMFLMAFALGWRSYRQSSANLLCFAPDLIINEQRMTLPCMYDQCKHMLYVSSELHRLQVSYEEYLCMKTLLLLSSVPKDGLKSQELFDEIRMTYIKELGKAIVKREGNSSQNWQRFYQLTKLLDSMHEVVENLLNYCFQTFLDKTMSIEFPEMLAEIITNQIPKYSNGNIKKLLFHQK
Type: binding
In short: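 Fluorescence polarization competition with recombinant GR and GS Red fluorescent ligand plus stabilizing peptide and DTT in potassium phosphate/sodium molybdate/EDTA buffer with DMSO. Incubated 2 hours at room temperature in the dark; 0% control DMSO, 100% control 10 μM dexamethasone.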
Compound `Cc1occc1C(=O)O[C@]1(C(=O)SCCO)CC[C@H]2[C@@H]3CCC4=Cc5c(cnn5-c5ccc(F)cc5)C[C@]4(C)[C@H]3[C@@H](O)C[C@@]21C` [Example 55, (1R,3aS,3bS,10aR,10bS,11S,12aS)-7-(4-Fluorophenyl)-11-hydroxy-1-{[(2-hydroxy-ethyl)thio]carbonyl}-10a,12a-dimethyl-1,2,3,3a,3b,4,5,7,10,10a,10b,11,12,12a-tetradecahydrocyclopenta[5,6]naphtho[1,2-f]indazol-1-yl 2-methylfuran-3-carboxylate] has an IC50 of 7 nM.

Same assay, conditions: fluorescence polarization; GS Red tracer; 2 hours at room temperature; 100% control 10 μM Dexamethasone; read-out: Inhibition of GR binding, IC50
Compound `C[C@]12Cc3cnn(-c4ccc(F)cc4)c3C=C1CC[C@@H]1[C@@H]2[C@@H](O)C[C@@]2(C)[C@H]1CC[C@]2(OC(=O)c1nccs1)C(=O)SCC#CCO` [Example 41, (1R,3aS,3bS,10aR,10bS,11S,12aS)-7-(4-Fluorophenyl)-11-hydroxy-{[(4-hydroxy-but-2-yn-1-yl)thio]carbonyl}-10a,12a-dimethyl-1,2,3,3a,3b,4,5,7,10,10a,10b,11,12,12a-tetradecahydrocyclopenta[5,6]naphtho[1,2-f]indazol-1-yl 1,3-thiazole-2-carboxylate] has an IC50 of 4.1 nM.
`C[C@]12Cc3cnn(-c4ccc(F)cc4)c3C=C1CC[C@@H]1[C@@H]2[C@@H](O)C[C@@]2(C)[C@H]1CC[C@]2(OC(=O)c1nccs1)C(=O)SCF` [Example 42, (1R,3aS,3bS,10aR,10bS,11S,12aS)-1-{[(Fluoromethyl)thio]carbonyl}-7-(4-fluoro-phenyl)-11-hydroxy-10a,12a-dimethyl-1,2,3,3a,3b,4,5,7,10,10a,10b,11,12,12a-tetradecahydrocyclopenta[5,6]naphtho[1,2-f]indazol-1-yl 1,3-thiazole-2-carboxylate] gave an IC50 of 3.2 nM.
With `C[C@]12Cc3cnn(-c4ccc(F)cc4)c3C=C1CC[C@@H]1[C@@H]2[C@@H](O)C[C@@]2(C)[C@H]1CC[C@]2(OC(=O)c1cocn1)C(=O)SCC#N` [Example 43, (1R,3aS,3bS,10aR,10bS,11S,12aS)-1-{[(Cyanomethyl)thio]carbonyl}-7-(4-fluoro-phenyl)-11-hydroxy-10a,12a-dimethyl-1,2,3,3a,3b,4,5,7,10,10a,10b,11,12,12a-tetradecahydrocyclopenta[5,6]naphtho[1,2-f]indazol-1-yl 1,3-oxazole-4-carboxylate] the IC50 was 2.7 nM.
`C[C@]12Cc3cnn(-c4ccc(F)cc4)c3C=C1CC[C@@H]1[C@@H]2[C@@H](O)C[C@@]2(C)[C@H]1CC[C@]2(OC(=O)c1cocn1)C(=O)SCCO` [Example 44, (1R,3aS,3bS,10aR,10bS,11S,12aS)-7-(4-Fluorophenyl)-11-hydroxy-1-{[(2-hydroxy-ethyl)thio]carbonyl}-10a,12a-dimethyl-1,2,3,3a,3b,4,5,7,10,10a,10b,11,12,12a-tetradecahydrocyclopenta[5,6]naphtho[1,2-f]indazol-1-yl 1,3-oxazole-4-carboxylate] showed an IC50 of 2.9 nM.
Work on `C[C@]12Cc3cnn(-c4ccc(F)cc4)c3C=C1CC[C@@H]1[C@@H]2[C@@H](O)C[C@@]2(C)[C@H]1CC[C@]2(OC(=O)c1cocn1)C(=O)SCF` [Example 45, (1R,3aS,3bS,10aR,10bS,11S,12aS)-1-{[(Fluoromethyl)thio]carbonyl}-7-(4-fluoro-phenyl)-11-hydroxy-10a,12a-dimethyl-1,2,3,3a,3b,4,5,7,10,10a,10b,11,12,12a-tetradecahydrocyclopenta[5,6]naphtho[1,2-f]indazol-1-yl 1,3-oxazole-4-carboxylate] yielded an IC50 of 3.4 nM.
`CC(=O)CSC(=O)[C@@]1(OC(=O)c2cocn2)CC[C@H]2[C@@H]3CCC4=Cc5c(cnn5-c5ccc(F)cc5)C[C@]4(C)[C@H]3[C@@H](O)C[C@@]21C` [Example 46, (1R,3aS,3bS,10aR,10bS,11S,12aS)-7-(4-Fluorophenyl)-11-hydroxy-10a,12a-dimethyl-1-{[(2-oxopropyl)thio]carbonyl}-1,2,3,3a,3b,4,5,7,10,10a,10b,11,12,12a-tetradecahydropcyclopenta[5,6]naphtho[1,2-f]indazol-1-yl 1,3-oxazole-4-carboxylate] gave an IC50 of 3.9 nM.
For `Cn1cc(C(=O)O[C@]2(C(=O)SCC#N)CC[C@H]3[C@@H]4CCC5=Cc6c(cnn6-c6ccc(F)cc6)C[C@]5(C)[C@H]4[C@@H](O)C[C@@]32C)nn1` [Example 47, (1R,3aS,3bS,10aR,10bS,11S,12aS)-1-{[(Cyanomethyl)thio]carbonyl}-7-(4-fluoro-phenyl)-11-hydroxy-10a,12a-dimethyl-1,2,3,3a,3b,4,5,7,10,10a,10b,11,12,12a-tetradecahydrocyclopenta[5,6]naphtho[1,2-f]indazol-1-yl 1-methyl-1H-1,2,3-triazole-4-carboxylate], the IC50 was 2.5 nM.
`Cn1cc(C(=O)O[C@]2(C(=O)SCF)CC[C@H]3[C@@H]4CCC5=Cc6c(cnn6-c6ccc(F)cc6)C[C@]5(C)[C@H]4[C@@H](O)C[C@@]32C)nn1` [Example 48, (1R,3aS,3bS,10aR,10bS,11S,12aS)-1-{[(Fluoromethyl)thio]carbonyl}-7-(4-fluoro-phenyl)-11-hydroxy-10a,12a-dimethyl-1,2,3,3a,3b,4,5,7,10,10a,10b,11,12,12a-tetradecahydrocyclopenta[5,6]naphtho[1,2-f]indazol-1-yl 1-methyl-1H-1,2,3-triazole-4-carboxylate] showed an IC50 of 4.9 nM.
For `Cn1cc(C(=O)O[C@]2(C(=O)SCCO)CC[C@H]3[C@@H]4CCC5=Cc6c(cnn6-c6ccc(F)cc6)C[C@]5(C)[C@H]4[C@@H](O)C[C@@]32C)nn1` [Example 49, (1R,3aS,3bS,10aR,10bS,11S,12aS)-7-(4-Fluorophenyl)-11-hydroxy-1-{[(2-hydroxy-ethyl)thio]carbonyl}-10a,12a-dimethyl-1,2,3,3a,3b,4,5,7,10,10a,10b,11,12,12a-tetradecahydrocyclopenta[5,6]naphtho[1,2-f]indazol-1-yl 1-methyl-1H-1,2,3-triazole-4-carboxylate], the IC50 was 3.5 nM.
For `C[C@]12Cc3cnn(-c4ccc(F)cc4)c3C=C1CC[C@@H]1[C@@H]2[C@@H](O)C[C@@]2(C)[C@H]1CC[C@]2(OC(=O)c1ccoc1)C(=O)SCC#N` [Example 50, (1R,3aS,3bS,10aR,10bS,11S,12aS)-1-{[(Cyanomethyl)thio]carbonyl}-7-(4-fluoro-phenyl)-11-hydroxy-10a,12a-dimethyl-1,2,3,3a,3b,4,5,7,10,10a,10b,11,12,12a-tetradecahydrocyclopenta[5,6]naphtho[1,2-f]indazol-1-yl furan-3-carboxylate], the IC50 was 5.8 nM.
Compound `C[C@]12Cc3cnn(-c4ccc(F)cc4)c3C=C1CC[C@@H]1[C@@H]2[C@@H](O)C[C@@]2(C)[C@H]1CC[C@]2(OC(=O)c1ccoc1)C(=O)SCF` [Example 51, (1R,3aS,3bS,10aR,10bS,11S,12aS)-1-{[(Fluoromethyl)thio]carbonyl}-7-(4-fluoro-phenyl)-11-hydroxy-10a,12a-dimethyl-1,2,3,3a,3b,4,5,7,10,10a,10b,11,12,12a-tetradecahydrocyclopenta[5,6]naphtho[1,2-f]indazol-1-yl furan-3-carboxylate] has an IC50 of 6.9 nM.
Compound `C[C@]12Cc3cnn(-c4ccc(F)cc4)c3C=C1CC[C@@H]1[C@@H]2[C@@H](O)C[C@@]2(C)[C@H]1CC[C@]2(OC(=O)c1ccoc1)C(=O)SCCO` [Example 52, (1R,3aS,3bS,10aR,10bS,11S,12aS)-7-(4-Fluorophenyl)-11-hydroxy-1-{[(2-hydroxy-ethyl)thio]carbonyl}-10a,12a-dimethyl-1,2,3,3a,3b,4,5,7,10,10a,10b,11,12,12a-tetradecahydrocyclopenta[5,6]naphtho[1,2-f]indazol-1-yl furan-3-carboxylate] has an IC50 of 6.4 nM.
`Cc1occc1C(=O)O[C@]1(C(=O)SCC#N)CC[C@H]2[C@@H]3CCC4=Cc5c(cnn5-c5ccc(F)cc5)C[C@]4(C)[C@H]3[C@@H](O)C[C@@]21C` [Example 53, (1R,3aS,3bS,10aR,10bS,11S,12aS)-1-{[(Cyanomethyl)sulfanyl]carbonyl}-7-(4-fluoro-phenyl)-11-hydroxy-10a,12a-dimethyl-1,2,3,3a,3b,4,5,7,10,10a,10b,11,12,12a-tetradecahydrocyclopenta[5,6]naphtho[1,2-f]indazol-1-yl 2-methylfuran-3-carboxylate] gave an IC50 of 9 nM.
`Cc1occc1C(=O)O[C@]1(C(=O)SCF)CC[C@H]2[C@@H]3CCC4=Cc5c(cnn5-c5ccc(F)cc5)C[C@]4(C)[C@H]3[C@@H](O)C[C@@]21C` [Example 54, (1R,3aS,3bS,10aR,10bS,11S,12aS)-1-{[(Fluoromethyl)thio]carbonyl}-7-(4-fluorophenyl)-11-hydroxy-10a,12a-dimethyl-1,2,3,3a,3b,4,5,7,10,10a,10b,11,12,12a-tetradecahydropcyclopenta[5,6]naphtho[1,2]-indazol-1-yl 2-methylfuran-3-carboxylate] gave an IC50 of 7.3 nM.
